From the supplement of paper PMC4862054

Tests used:
Conditions in all cases: incubation time: 72 h
[1] = test system: MDA-MB-436; assay: normalised response (% of control), CellTiter-Glo; higher = more viable cells (100 = DMSO, 0 = benzethonium chloride kill control)
Procedure: (§1)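 DSRT, 72 h incubation, CellTox Green / CellTiter-Glo readout. Signal is normalised to DMSO and benzethonium chloride controls. Value is the normalised response at dose 3.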

[2] = test system: DU-4475; assay: as above
Procedure: as §1

[3] = test system: HDQ-P1; assay: as above
Procedure: as §1

[4] = test system: SK-BR-3; assay: as above
Procedure: as §1

[5] = test system: MDA-MB-468; assay: as above
Procedure: as §1

[6] = test system: MDA-MB-453; assay: as above
Procedure: as §1

[7] = test system: CAL-120; assay: as above
Procedure: as §1

[8] = test system: CAL-148; assay: as above
Procedure: as §1

[9] = test system: CAL-51; assay: as above
Procedure: as §1

[10] = test system: MDA-MB-231; assay: as above
Procedure: as §1

[11] = test system: Hs578T; assay: as above
Procedure: as §1

[12] = test system: MCF-10A; assay: as above
Procedure: as §1

[13] = test system: BT-474; assay: as above
Procedure: as §1

[14] = test system: BT-549; assay: as above
Procedure: as §1

[15] = test system: MFM-223; assay: as above
Procedure: as §1

[16] = test system: HCC1937; assay: as above
Procedure: as §1

[17] = test system: HCC1599; assay: as above
Procedure: as §1

[18] = test system: CAL-85-1; assay: as above
Procedure: as §1

[19] = test system: HCC1143; assay: as above
Procedure: as §1

[20] = test system: MDA-MB-436; assay: normalised response (% of control), CellTox Green; higher = less cell death (100 = DMSO, 0 = benzethonium chloride kill control)
Summary of the method: (§2)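 Two readouts were taken after 72 h: CellTox Green fluorescence (485/520 nm) first, then CellTiter-Glo luminescence after 10 min at room temperature. Breast cancer cell lines had been seeded as 20 µl suspension into 384-well plates holding compound at 5 concentrations in 10-fold steps across a compound-specific 10,000-fold range. Each value is a normalised signal at a single concentration, with plates scaled to 0.1 % DMSO (100) and a positive kill control (0).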

[21] = test system: DU-4475; assay: as above
Summary of the method: as §2

[22] = test system: MDA-MB-468; assay: as above
Summary of the method: as §2

[23] = test system: MDA-MB-453; assay: as above
Summary of the method: as §2

[24] = test system: CAL-120; assay: as above
Summary of the method: as §2

[25] = test system: CAL-148; assay: as above
Summary of the method: as §2

[26] = test system: CAL-51; assay: as above
Summary of the method: as §2

[27] = test system: MDA-MB-231; assay: as above
Summary of the method: as §2

[28] = test system: Hs578T; assay: as above
Summary of the method: as §2

[29] = test system: BT-474; assay: as above
Summary of the method: as §2

[30] = test system: BT-549; assay: as above
Summary of the method: as §2

[31] = test system: MFM-223; assay: as above
Summary of the method: as §2

[32] = test system: HCC1937; assay: as above
Summary of the method: as §2

[33] = test system: HCC1599; assay: as above
Summary of the method: as §2

[34] = test system: CAL-85-1; assay: as above
Summary of the method: as §2

[35] = test system: HCC1143; assay: as above
Summary of the method: as §2

CN(c1ccccc1CNc1nc(Nc2ccc3c(c2)CC(=O)N3)ncc1C(F)(F)F)S(C)(=O)=O (100 nM)
normalised response [1]: 91.9%
normalised response [2]: 95.6%
normalised response [3]: 101%
normalised response [4]: 88.3%
normalised response [5]: 88.5%
normalised response [6]: 90.4%
normalised response [7]: 87.2%
normalised response [8]: 104%
normalised response [9]: 93.1%
normalised response [10]: 89.6%
normalised response [11]: 94.3%
normalised response [12]: 86.2%
normalised response [13]: 89.8%
normalised response [14]: 97.9%
normalised response [15]: 95.5%
normalised response [16]: 96.5%
normalised response [17]: 98.3%
normalised response [18]: 95.5%
normalised response [19]: 96.5%
normalised response [20]: 80.3%
normalised response [21]: 98.1%
normalised response [22]: 115%
normalised response [23]: 103%
normalised response [24]: 99.9%
normalised response [25]: 99.2%
normalised response [26]: 87.6%
normalised response [27]: 85.8%
normalised response [28]: 104%
normalised response [29]: 94.5%
normalised response [30]: 97.5%
normalised response [31]: 103%
normalised response [32]: 83.4%
normalised response [33]: 94%
normalised response [34]: 102%
normalised response [35]: 84.4%
